Assay results reported in patent US20230113378A1, “Methods Of Treating Multiple Sclerosis” (priority 2021, published 2023).
Values joined by “and” are separate entries in the source; they are usually repeats but may differ in a detail not shown here. Identical values can stand only once. “Also recorded” adds a separate entry of the source.

How the values were obtained:
[1] = system: SARS-CoV-2 anti-spike-protein (spike) antibody; experiment: SARS-CoV-2 anti-spike IgG ELISA before and after COVID-19 vaccination in RMS patients on ponesimod (study AC-058B202); type: in vivo, human
Method: (§1) Participants in this study receiving 20 mg ponesimod who reported COVID-19 vaccination were analyzed. Blood samples collected before and at least 3 weeks after COVID-19 vaccination were tested for SARS-CoV-2 anti-spike-protein (spike) antibody concentrations (Human SARS-CoV-2 PreSpike IgG ELISA, Nexelis). Response to vaccination was defined as seroconversion in case of negative pre-vaccination antibody testing, or a 4-fold antibody concentration increase in case of positive pre-vaccination antibody result. COVID-19 infection adverse events (AEs) were evaluated in this study sub-population.
Of the 134 participants, 49 participants had both pre- and post-vaccination blood samples tested for anti-spike antibody concentrations. Out of these 49 participants, 40 (81.6%) met the pre-specified definition of response to COVID-19 vaccination. […] Response was defined as pre-vaccination titer≤lower limit of quantification (LLOQ) and post-vaccination titer >LLOQ; or pre-vaccination titer >LLOQ (i.e., seroconversion in case of negative pre-vaccination antibody testing) and post-vaccination titer >4× increase (i.e., a 4-fold antibody concentration increase in case of positive pre-vaccination antibody result).
Patients in the Phase 2 extension study AC-058B202 receiving ponesimod 20 mg who reported COVID-19 vaccination were included in this analysis. Blood samples collected before and at least 3 weeks after vaccination were evaluated with Human SARS-CoV-2 PreSpike IgG (spike antibody) enzyme-linked immunoassay (Nexelis). A responder to vaccination was defined as seroconversion in case of negative pre-vaccination antibody testing, or a 4-fold antibody concentration increase in case of positive pre-vaccination antibody result. Responder analysis was performed by vaccine type, and by pre-vaccination lymphocyte count.

[2] = COVID-19 infection adverse events in vaccinated RMS patients on ponesimod (study AC-058B202); type: in vivo, human
Method: as §1

influenza A/PR/8/34 = experiment: Neutralizing antibody response to inactivated influenza A/PR/8/34 immunization in mice on ponesimod chow; type: in vivo, female BALB/c mice
Source text: The neutralizing antibody response to a single intramuscular injection of purified and inactivated influenza A/PR/8/34 was compared in female BALB/c mice that were maintained on different oral ponesimod regimens (Group 1: standard chow; Group 2: continuous specialty chow with ponesimod at 1000 ppm; Group 3: specialty chow with a 4-day discontinuation around immunization).
Mean percentage inhibition of viral infection by A/PR/8/34 with serum samples, ±SEM.
Table 5 presents data regarding dilution from neat serum that results in 50% inhibition of viral infection (ID50).

influenza vaccine = details: observed previously; cited from earlier work
[3] = inactivated virus vaccines, post-vaccination
[4] = inactivated virus vaccines, pre-vaccination
[5] = mRNA vaccines, post-vaccination
[6] = mixed vaccines, post-vaccination
[7] = mixed vaccines, pre-vaccination
[8] = subjects pre-vaccination negative
[9] = subjects pre-vaccination positive
[10] = unspecified vaccines, post-vaccination
[11] = unspecified vaccines, pre-vaccination
[12] = viral vector vaccines, post-vaccination

## CCC/N=C1\S/C(=C\c2ccc(OC[C@H](O)CO)c(Cl)c2)C(=O)N1c1ccccc1C [ponesimod, (R)-5-[3-chloro-4-(2,3-dihydroxy-propoxy)-benz[Z]ylidene]-2-([Z]-propylimino)-3-o-tolyl-thiazolidin-4-one]
[1]; all vaccines, 1st vaccine regimen, ponesimod 20 mg
  Fold increase from baseline of S binding antibody, geometric mean (95% CI): 12.90 (7.64; 21.78)
[1]; all vaccines, seroconversion or >4-fold increase
  Responders (n/N) (%) (95% CI): 40 (81.6%) n/N (%)
[1]; inactivated virus vaccines
  Fold increase from baseline, geometric mean (95% CI): 1.29 (0.50; 3.32)
  Responders (n/N) (%) (95% CI): 2 (33.3%) n/N (%)
[1]; [3]
  Positive sample n (%) (95% CI): 6 (66.7%) (29.93; 92.51) n (%)
  S binding antibody concentration, geometric mean (95% CI): 84.22 (<LLOQ; 189.22) EU/mL
[1]; [4]
  Positive sample n (%) (95% CI): 3 (50.0%) (11.81; 88.19) n (%)
  S binding antibody concentration, geometric mean (95% CI): 65.88 (<LLOQ; 203.92) EU/mL
[1]; mRNA COVID-19 vaccines and/or pre-vaccination lymphocyte counts ≥500 cells/mm^3
  Patients meeting antibody concentration responder criteria: > 90%
[1]; mRNA vaccines
  Fold increase from baseline, geometric mean (95% CI): 20.68 (11.35; 37.68)
  Responders (n/N) (%) (95% CI): 29 (90.6%) n/N (%)
[1]; [5]
  Positive sample n (%) (95% CI): 62 (88.6%) (78.72; 94.93) n (%)
  S binding antibody concentration, geometric mean (95% CI): 833.22 (513.88; 1351.00) EU/mL
[1]; mRNA vaccines, pre-vaccination
  Positive sample n (%) (95% CI): 5 (15.6%) (5.28; 32.79) n (%)
[1]; mixed or unspecified vaccine types, 4 participants
  Responders n (%): 4 (100%) n (%)
[1]; mixed vaccines
  Fold increase from baseline, geometric mean: 11.49
[1]; [6]
  Positive sample n (%): 5 (100.0%) n (%)
  S binding antibody concentration, geometric mean: 1525.40 EU/mL
[1]; [7]
  Positive sample n (%): 1 (33.3%) n (%)
  S binding antibody concentration, geometric mean: <LLOQ
[1]; post-vaccination, all vaccines, 1st vaccine regimen, ponesimod 20 mg
  SARS-CoV-2 S binding antibody concentration, geometric mean (95% CI): 621.25 (414.96; 930.08) EU/mL
[1]; post-vaccination, all vaccines, positive = value > LLOQ
  Positive sample n (%) (95% CI): 89 (86.4%)(78.25; 92.37) n (%)
[1]; pre-vaccination lymphocyte count <500 cells/mm^3, 16 participants
  Responders n (%): 9 (56.3%) n (%)
[1]; pre-vaccination lymphocyte count ≥500 cells/mm^3, 32 participants
  Responders n (%): 30 (93.8%) n (%)
[1]; pre-vaccination, all vaccines, positive = value > LLOQ
  Positive sample n (%) (95% CI): 11 (22.4%) (11.77; 36.62) n (%)
[1]; [8]
  Post-vaccination Negative N (%): 5 (13.2%) N (%)
  Post-vaccination Responder N (%): 33 (86.8%) N (%)
[1]; subjects pre-vaccination negative (seroconversion)
  Post-vaccination Positive N (%): 33 (86.8%) N (%)
[1]; [9]
  Post-vaccination Negative N (%): 0 N (%)
  Post-vaccination Positive N (%): 11 (100.0%) N (%)
  Post-vaccination Responder N (%): 7 (63.6%) N (%)
[1]; unspecified vaccines
  Fold increase from baseline, geometric mean: 182.01
[1]; [10]
  Positive sample n (%): 2 (100.0%) n (%)
  S binding antibody concentration, geometric mean: 944.31 EU/mL
[1]; [11]
  Positive sample n (%): 0 n (%)
  S binding antibody concentration, geometric mean: <LLOQ
[1]; viral vector vaccines
  Fold increase from baseline, geometric mean (95% CI): 7.76 (2.22; 27.11)
  Responders (n/N) (%) (95% CI): 5 (71.4%) n/N (%)
[1]; [12]
  Positive sample n (%) (95% CI): 14 (82.4%) (56.57; 96.2) n (%)
  S binding antibody concentration, geometric mean (95% CI): 390.49 (140.01; 1089.07) EU/mL
[1]; viral vector vaccines, pre-vaccination
  Positive sample n (%) (95% CI): 2 (28.6%) (3.67; 70.96) n (%)
[2]; >=14 D Post Vx
  COVID-19 infection AEs leading to death, n (%): 0 n (%)
  COVID-19 infection AEs leading to treatment discontinuation, n (%): 0 n (%)
  COVID-19 infection AEs leading to treatment interruption, n (%): 4 (3.0%) n (%)
  COVID-19 infection AEs, severity Mild, n (%): 13 (9.7%) n (%)
  COVID-19 infection AEs, severity Moderate, n (%): 4 (3.0%) n (%)
  COVID-19 infection AEs, severity Severe, n (%): 0 n (%)
  Serious COVID-19 infection AEs, n (%): 0 n (%)
  Subjects with COVID-19 infection AEs, n (%): 17 (12.7%) n (%)
[2]; >=28 D Post Vx
  COVID-19 infection AEs leading to death, n (%): 0 n (%)
  COVID-19 infection AEs leading to treatment discontinuation, n (%): 0 n (%)
  COVID-19 infection AEs leading to treatment interruption, n (%): 4 (3.0%) n (%)
  COVID-19 infection AEs, severity Mild, n (%): 13 (9.7%) n (%)
  COVID-19 infection AEs, severity Moderate, n (%): 4 (3.0%) n (%)
  COVID-19 infection AEs, severity Severe, n (%): 0 n (%)
  Serious COVID-19 infection AEs, n (%): 0 n (%)
  Subjects with COVID-19 infection AEs, n (%): 17 (12.7%) n (%)
[2]; Post-Vx
  COVID-19 infection AEs leading to death, n (%): 0 n (%)
  COVID-19 infection AEs leading to treatment discontinuation, n (%): 0 n (%)
  COVID-19 infection AEs leading to treatment interruption, n (%): 4 (3.0%) n (%)
  COVID-19 infection AEs, severity Mild, n (%): 13 (9.7%) n (%)
  COVID-19 infection AEs, severity Moderate, n (%): 4 (3.0%) n (%)
  COVID-19 infection AEs, severity Severe, n (%): 0 n (%)
  Serious COVID-19 infection AEs, n (%): 0 n (%)
  Subjects with COVID-19 infection AEs, n (%): 17 n (%) and 17 (12.7%) n (%)
[2]; Pre-Vx
  COVID-19 infection AEs leading to death, n (%): 0 n (%)
  COVID-19 infection AEs leading to treatment discontinuation, n (%): 0 n (%)
  COVID-19 infection AEs leading to treatment interruption, n (%): 5 (3.7%) n (%)
  COVID-19 infection AEs, severity Mild, n (%): 18 (13.4%) n (%)
  COVID-19 infection AEs, severity Moderate, n (%): 2 (1.5%) n (%)
  COVID-19 infection AEs, severity Severe, n (%): 0 n (%)
  Serious COVID-19 infection AEs, n (%): 0 n (%)
  Subjects with COVID-19 infection AEs, n (%): 20 n (%) and 20 (14.9%) n (%)
[2]; Total
  COVID-19 infection AEs leading to treatment interruption, n (%): 7 (5.2%) n (%)
  COVID-19 infection AEs, severity Mild, n (%): 28 (20.9%) n (%)
  COVID-19 infection AEs, severity Moderate, n (%): 6 (4.5%) n (%)
  Subjects with COVID-19 infection AEs, n (%): 33 (24.6%) n (%)
Influenza A/PR/8/34; Concomitant (Group 2), Day 35
  Inhibition titer: dilution from neat serum that results in 50% inhibition of viral infection (ID50): 0.004
Influenza A/PR/8/34; Concomitant (Group 2), Day 63
  Inhibition titer: dilution from neat serum that results in 50% inhibition of viral infection (ID50): 0.003
Influenza A/PR/8/34; Concomitant (Group 2), Day 91
  Inhibition titer: dilution from neat serum that results in 50% inhibition of viral infection (ID50): 0.004
Influenza A/PR/8/34; Concomitant (Group 2, continuous ponesimod chow 1000 ppm), Day −1
  Inhibition titer: dilution from neat serum that results in 50% inhibition of viral infection (ID50): 0.050
Influenza A/PR/8/34; Discontinued (Group 3), Day 35
  Inhibition titer: dilution from neat serum that results in 50% inhibition of viral infection (ID50): 0.001
Influenza A/PR/8/34; Discontinued (Group 3), Day 63
  Inhibition titer: dilution from neat serum that results in 50% inhibition of viral infection (ID50): 0.002
Influenza A/PR/8/34; Discontinued (Group 3), Day 91
  Inhibition titer: dilution from neat serum that results in 50% inhibition of viral infection (ID50): 0.003
Influenza A/PR/8/34; Discontinued (Group 3, 4-day discontinuation around immunization), Day −1
  Inhibition titer: dilution from neat serum that results in 50% inhibition of viral infection (ID50): 0.001
Influenza A/PR/8/34; Group 2, continuously on ponesimod chow, inactivated H1N1 influenza vaccine
  Vaccine (antibody) response compared to control mice: attenuated vaccine response; also recorded: blunted, but not absent
Group 3, after a 2-day wash-out period
  Plasma drug levels after wash-out: cleared from plasma
Groups 2 and 3, by Day 5, ponesimod chow 1000 ppm
  Plasma drug levels: sufficiently high to reduce lymphocyte counts

## CCc1cc(/C(C)=N/OCc2ccc(C3CCCCC3)c(C(F)(F)F)c2)ccc1CN1CC(C(=O)O)C1 [siponimod]
Influenza vaccine
  Vaccination response to the influenza vaccine: reduced vaccination response
